Data reported in the supplement of paper PMC10307832.

What was measured:
Test in all cases: relative viability (nuclei count vs DMSO), 5 days (fraction); higher = more cells survive
Metformin + Decitabine = compound: CN(C)C(=N)NC(=N)N [Metformin] + Nc1ncn([C@H]2C[C@H](O)[C@@H](CO)O2)c(=O)n1 [Decitabine] (partner 2 µM)
Procedure, shortened: (§1)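 Each reported value is a median over duplicate plates. It expresses relative viability: treated-well nuclei count divided by vehicle-well nuclei count. Lung cancer cell lines in 1536-well plates were dosed by pin tool a day after seeding, alone with one drug or with a fixed anchor-drug dose plus five library-drug doses (not always all listed) in √10 steps, and nuclei were counted after 5 days.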

Apatinib + Navitoclax = compound: N#CC1(c2ccc(NC(=O)c3cccnc3NCc3ccncc3)cc2)CCCC1 [Apatinib] + CC1(C)CCC(c2ccc(Cl)cc2)=C(CN2CCN(c3ccc(C(=O)NS(=O)(=O)c4ccc(N[C@H](CCN5CCOCC5)CSc5ccccc5)c(S(=O)(=O)C(F)(F)F)c4)cc3)CC2)C1 [Navitoclax] (partner 0.5 µM)
Procedure, shortened: as §1

Apatinib + Decitabine = compound: N#CC1(c2ccc(NC(=O)c3cccnc3NCc3ccncc3)cc2)CCCC1 [Apatinib] + Nc1ncn([C@H]2C[C@H](O)[C@@H](CO)O2)c(=O)n1 [Decitabine] (partner 2 µM)
Procedure, shortened: as §1

Metformin + Foretinib = compound: CN(C)C(=N)NC(=N)N [Metformin] + COc1cc2c(Oc3ccc(NC(=O)C4(C(=O)Nc5ccc(F)cc5)CC4)cc3F)ccnc2cc1OCCCN1CCOCC1 [Foretinib] (partner 0.25 µM)
Procedure, shortened: as §1

Cell Line	relative viability (Metformin + Decitabine; first compound 10 µM)	relative viability (Metformin + Decitabine; first compound 31.62 µM)	relative viability (Metformin + Decitabine; first compound 100 µM)	relative viability (Metformin + Decitabine; first compound 316.23 µM)	relative viability (Metformin + Decitabine; first compound 1000 µM)	relative viability (Apatinib + Navitoclax; first compound 0.08 µM)	relative viability (Apatinib + Navitoclax; first compound 0.253 µM)	relative viability (Apatinib + Navitoclax; first compound 0.8 µM)	relative viability (Apatinib + Navitoclax; first compound 2.53 µM)	relative viability (Apatinib + Navitoclax; first compound 8 µM)	relative viability (Apatinib + Decitabine; first compound 0.08 µM)	relative viability (Apatinib + Decitabine; first compound 0.253 µM)	relative viability (Apatinib + Decitabine; first compound 0.8 µM)	relative viability (Apatinib + Decitabine; first compound 2.53 µM)	relative viability (Apatinib + Decitabine; first compound 8 µM)	relative viability (Metformin + Foretinib; first compound 10 µM)	relative viability (Metformin + Foretinib; first compound 31.62 µM)	relative viability (Metformin + Foretinib; first compound 100 µM)	relative viability (Metformin + Foretinib; first compound 316.23 µM)	relative viability (Metformin + Foretinib; first compound 1000 µM)
LU99A	0.798	0.765	0.723	0.735	0.849	0.876	0.851	0.745	0.721	0.732	1.01	1.01	0.843	0.895	0.774	0.57	0.676	0.643	0.596	0.677
LXF-289	0.312	0.367	0.345	0.312	0.378	0.948	0.925	0.95	0.82	0.882	0.4	0.386	0.391	0.565	0.594	0.873	0.918	0.879	0.916	0.912
NCI-H23	0.273	0.276	0.285	0.324	0.328	1.01	0.931	0.742	0.725	0.794	0.32	0.333	0.304	0.332	0.475	0.925	1.1	1.01	0.953	1.08
NCI-H322M	0.698	0.673	0.718	0.675	0.746	1.28	1.11	1.25	1.32	1.12	0.75	0.709	0.64	0.833	0.783	1.14	1.03	1.05	1.1	0.935
NCI-H441	–	0.236	0.262	0.217	0.262	1.07	0.5	0.728	0.519	0.31	0.229	0.233	0.248	0.285	0.444	–	0.879	0.799	0.788	0.77
NCI-H460	–	0.444	0.493	0.412	0.469	1.1	1.14	1.03	1.06	1.05	0.497	0.457	0.43	0.447	0.477	0.949	0.998	0.961	1.02	1.03
NCI-H520	0.463	0.447	0.461	0.423	0.485	1.21	1.14	0.982	1.02	0.857	0.544	0.476	0.559	0.5	0.486	0.765	0.74	0.783	0.703	0.953
NCI-H596	1.17	1.12	1.06	1.01	1.11	1.03	1.11	0.927	0.945	0.857	1	1.18	0.916	1.04	1.08	0.832	0.855	0.85	0.861	0.89
NCI-H647	0.316	0.366	0.381	–	0.434	1.3	1.29	1.04	0.975	0.779	0.376	0.413	0.478	0.414	0.583	1.08	1.07	1.26	0.932	1.1
NCI-H727	0.789	0.897	0.89	–	1.1	0.465	0.552	0.384	0.425	0.531	0.89	–	0.973	0.985	0.729	0.971	0.769	0.959	0.914	0.927
NCI-H838	0.478	0.465	0.482	0.396	0.459	1.25	1.27	1.09	1.12	1.05	0.489	0.48	0.493	0.442	0.469	1.04	1.13	1.07	0.984	0.996
NCI-H1355	0.402	0.285	0.332	0.355	0.372	0.944	0.929	0.848	0.815	0.65	0.35	0.349	0.39	0.367	0.447	0.941	1.05	0.998	0.972	0.99
NCI-H1395	0.661	0.758	0.719	0.713	0.382	1.1	1.13	1.09	1.02	0.957	0.747	0.808	0.781	0.744	0.859	0.965	1	1.04	0.883	0.997
NCI-H1437	0.641	0.595	0.59	0.593	0.577	1.12	1.14	0.939	0.928	0.776	0.583	0.584	0.524	0.505	0.46	1.3	1.31	1.32	1.29	1.21
NCI-H1650	0.326	0.343	0.317	0.402	0.389	1.39	1.41	1.18	1.1	1.06	0.495	0.55	0.416	0.64	0.589	1.41	1.34	1.42	1.3	1.18
NCI-H1651	0.485	0.687	0.572	0.476	0.755	1.02	1.22	0.97	0.928	0.867	0.609	0.53	0.611	0.593	0.41	1.01	0.765	1.03	0.802	1.02

Cell Line	relative viability (Metformin + Decitabine; first compound 10 µM)	relative viability (Metformin + Decitabine; first compound 31.62 µM)	relative viability (Metformin + Decitabine; first compound 100 µM)	relative viability (Metformin + Decitabine; first compound 316.23 µM)	relative viability (Metformin + Decitabine; first compound 1000 µM)	relative viability (Apatinib + Navitoclax; first compound 0.08 µM)	relative viability (Apatinib + Navitoclax; first compound 0.253 µM)	relative viability (Apatinib + Navitoclax; first compound 0.8 µM)	relative viability (Apatinib + Navitoclax; first compound 2.53 µM)	relative viability (Apatinib + Navitoclax; first compound 8 µM)	relative viability (Apatinib + Decitabine; first compound 0.08 µM)	relative viability (Apatinib + Decitabine; first compound 0.253 µM)	relative viability (Apatinib + Decitabine; first compound 0.8 µM)	relative viability (Apatinib + Decitabine; first compound 2.53 µM)	relative viability (Apatinib + Decitabine; first compound 8 µM)	relative viability (Metformin + Foretinib; first compound 10 µM)	relative viability (Metformin + Foretinib; first compound 31.62 µM)	relative viability (Metformin + Foretinib; first compound 100 µM)	relative viability (Metformin + Foretinib; first compound 316.23 µM)	relative viability (Metformin + Foretinib; first compound 1000 µM)
NCI-H1666	0.66	0.713	0.649	0.619	0.823	1.02	0.963	1.07	0.815	1.04	0.756	0.727	0.692	0.737	0.612	1.03	1.03	1.08	1.03	1.09
NCI-H1734	0.502	0.425	0.435	0.442	0.499	0.852	0.81	0.861	0.708	0.685	0.532	0.549	0.482	0.563	0.623	0.844	0.896	0.95	0.798	0.935
NCI-H1755	0.685	0.535	0.643	0.644	0.635	1	0.968	0.963	0.952	0.865	0.712	0.701	0.644	0.91	0.837	0.757	0.789	0.778	0.742	0.816
NCI-H1793	0.503	0.439	0.458	0.449	0.621	0.343	0.712	0.441	0.29	0.283	0.555	0.535	0.516	0.541	0.564	0.78	–	1.01	0.743	1.18
NCI-H1915	–	0.263	0.255	0.245	0.269	0.838	0.819	0.778	0.783	0.732	0.296	0.266	0.265	0.339	0.388	–	1.04	1.15	1.07	1.18
NCI-H1944	0.361	0.381	0.437	0.401	0.453	1.04	1.06	0.976	0.974	0.965	0.41	0.466	0.401	0.421	0.504	0.881	0.995	1.03	0.924	0.996
NCI-H1975	0.334	0.402	0.65	0.323	0.394	1.19	1.15	1.04	0.869	0.852	0.406	0.372	0.413	0.381	0.466	1.16	1.1	1.08	1.06	1.21
NCI-H1993	0.616	0.681	0.672	0.634	0.766	1.13	0.822	0.813	0.688	0.772	0.604	0.623	0.519	0.559	0.544	0.964	1.02	0.912	0.836	1.06
NCI-H2009	0.367	0.366	0.351	0.401	0.424	1.22	1.23	1.12	0.913	0.826	0.367	0.411	0.35	0.508	0.581	1.21	1.31	1.31	1.13	1.04
NCI-H2023	0.224	0.223	0.203	0.207	0.186	0.988	1.01	0.954	0.925	0.895	0.233	0.261	0.269	0.307	0.472	0.99	0.828	0.854	0.909	0.47
NCI-H2085	0.498	0.453	0.484	0.531	0.524	1.18	1.23	1.18	1.05	0.949	0.592	0.573	0.582	0.587	0.712	0.854	0.892	0.865	1.04	1.19
NCI-H2087	0.251	0.231	0.294	0.294	0.3	1.06	1.05	0.847	0.963	0.782	0.272	0.285	0.331	0.239	0.236	–	0.966	1.12	0.891	1.06
NCI-H2126	0.554	0.592	0.557	0.571	0.562	0.9	0.859	0.826	0.811	0.802	0.589	0.637	0.666	0.566	0.547	1.12	1.18	1.22	0.862	1.15
NCI-H2170	0.415	0.436	0.417	0.395	0.471	0.617	0.646	0.568	0.599	0.498	0.476	0.494	0.461	0.518	0.508	0.951	1.02	0.915	0.95	0.965
NCI-H2347	0.532	0.597	0.605	0.573	0.578	0.783	0.698	0.948	0.728	0.74	0.666	0.592	0.67	0.674	0.804	0.844	0.578	0.784	0.885	0.459
NCI-H2405	–	0.783	0.756	0.677	0.64	1.03	1.07	1.01	0.832	0.803	0.83	0.854	0.711	0.712	0.776	0.936	1.06	1.11	1.01	1.09
